Data set [1] relates to Boophilus microplus females of the SP-resistant Parkhurst strain. The data set can be described thus: Boophilus microplus test (DIP). The data set is classed as in vivo. As for the experimental part: Boophilus microplus Test (DIP)
Test animals: adult engorged Boophilus microplus females of the SP-resistant Parkhurst strain
(§1) Solvent: dimethyl sulphoxide
10 mg of active compound are dissolved in 0.5 ml of dimethyl sulphoxide. For the purpose of preparing a suitable formulation, the active compound solution is diluted with water to the concentration desired in each case.
This active compound preparation is pipetted into tubes. 8-10 ticks are transferred into a further tube with holes. The tube is immersed into the active compound formulation, and all ticks are completely wetted. After the liquid has rum off, the ticks are transferred to filter discs in plastic dishes and kept in a climatized room. The activity is assessed after 7 days by laying of fertile eggs. Eggs whose fertility is not outwardly visible are stored in glass tubes in a climate-controlled cabinet until the larvae hatch. An efficacy of 100% means that none of the ticks has laid any fertile eggs.
10 mg of active compound are dissolved in 0.5 ml of dimethyl sulphoxide. For the purpose of preparing a suitable formulation, the active compound solution is diluted with water to the concentration desired in each case (in ppm).
This active compound preparation is pipetted into tubes. 8-10 ticks are transferred into a further tube with holes. The tube is immersed into the active compound formulation, and all ticks are completely wetted. After the liquid has run out, the ticks are transferred onto filter discs in plastic dishes and stored in a climate-controlled room.
The activity is assessed after the desired time by laying of fertile eggs. Eggs whose fertility is not evident from the outside are kept in glass tubes in a climate-controlled cabinet until the larvae have hatched. An effect of 100% means that none of the ticks has laid any fertile eggs.

Data set [2] relates to Tetranychus urticae. The data set can be described thus: Tetranychus test, OP-resistant (TETRUR spray treatment), bean leaf discs. The data set is classed as in vivo. The conditions noted are these: application rate 500 g/ha; after 6 days. As for the experimental part:
Tetranychus Test, OP-Resistant (TETRUR Spray Treatment)
After a time of 6 days, the efficacy in % is determined.

The subject of data set [3] is Spodoptera frugiperda. The data set can be described thus: Spodoptera frugiperda test (SPODFR spray treatment), maize leaf discs. Conditions: application rate 500 g/ha; after 7 days. The class given is in vivo. The text has this:
Spodoptera frugiperda Test (SPODFR Spray Treatment)

The subject of data set [4] is Myzus persicae. The data set can be described thus: Myzus test (MYZUPE spray treatment). The data set is classed as in vivo. As for the experimental part: Myzus test (Myzupe spray treatment)
After 6 days, the efficacy in % is determined.
Myzus Test (MYZUPE Spray Treatment)

Data set [5] has as its system Plutella xylostella. The data set can be described thus: Plutella xylostella spray test (PLUTMA). The data set is classed as in vivo. The conditions noted are these: 168 h, 7 dat. The text has this: Plutella xylostella Spray Test (PLUTMA)
(§2) Solvent: 7 parts by weight of dimethylformamide
(§3) Emulsifier: 2 parts by weight of alkylaryl polyglycol ether
(§4) If the addition of ammonium salts or/and penetrants is required, these are in each case added in a concentration of 1000 ppm to the solution of the preparation.

Data set [6] deals with Boophilus microplus. The data set can be described thus: Boophilus microplus test (BOOPMI injection). The class given is in vivo. The conditions noted are these: for % Activity dat: BOOPMI injection, 7 dat. As for the experimental part:
Boophilus microplus Test (BOOPMI Injection)
as §1
The active compound solution is injected into the abdomen (Boophilus microplus), and the animals are transferred into dishes and stored in a climate-controlled room. The activity is assessed by laying of fertile eggs.
The active compound solution is injected into the abdomen (Boophilus microplus), and the animals are transferred into dishes and stored in a climate-controlled room.
The activity is assessed by laying of fertile eggs. 100% means that none of the ticks has laid any fertile eggs.

Data set [7] is described as follows: log P by HPLC, EEC Directive 79/831 Annex V.A8, method a). The data set is classed as physicochemical. Conditions: reversed-phase C18 HPLC column; cell marked a): HPLC, reversed-phase C18, acetonitrile/water with formic acid, gradient 10% to 95% acetonitrile. The method in brief:
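Reversed-phase C18 HPLC (50*4.6, 1.8 micron) per EEC Directive 79/831 Annex V.A8, acetonitrile/water with formic acid, gradient 10% to 95% acetonitrile over 4.25 min then 1.25 min hold; 55° C, 2.0 ml/min, with MS detection.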

Data set [8] deals with Tetranychus urticae. The data set can be described thus: Tetranychus urticae spray test, OP-resistant (TETRUR), bean plants, ppm. The data set is classed as in vivo. Conditions: 168 h, 7 dat.
Source text: Tetranychus urticae Spray Test, OP-Resistant (TETRUR)
as §2, §3, §4

The test system of data set [9] is Spodoptera frugiperda. The data set can be described thus: Spodoptera frugiperda spray test (SPODFR), cotton leaves, ppm. The class given is in vivo. Conditions: 168 h, 7 dat.
Source text: Spodoptera frugiperda Spray Test (SPODFR)
as §2, §3, §4
Cotton leaves (Gossypium hirsutum) are sprayed with an active compound formulation of the desired concentration and populated with caterpillars of the armyworm (Spodoptera frugiperda).

The test system of data set [10] is Musca domestica. The data set can be described thus: Musca domestica test (MUSCDO). The data set is classed as in vivo. As for the experimental part: Musca domestica Test (MUSCDO)
as §1
Vessels containing a sponge treated with the active compound preparation of the desired concentration are populated with adult Musca domestica.
(§5) After 2 days, the kill in % is determined.
Vessels containing a sponge treated with the active compound formulation of the desired concentration are populated with adult Musca domestica.
After the desired period of time, the kill in % is determined.

In data set [11] the test system is Lucilia cuprina larvae. The data set can be described thus: Lucilia cuprina test (LUCICU). The data set is classed as in vivo. The conditions noted are these: 100 ppm; after 2 days. As for the experimental part:
Lucilia cuprina Test (LUCICU)
as §1
Vessels containing horse meat treated with the active compound preparation of the desired concentration are populated with about 20 Lucilia cuprina larvae.
as §5

Data set [12] has as its system Phaedon cochleariae. The data set can be described thus: Phaedon test (PHAECO spray treatment), Chinese cabbage leaf discs.
In data set [13] the test system is Ctenocephalides felis. The data set can be described thus: Ctenocephalides felis oral (CTECFE). The data set is classed as in vivo. As for the experimental part: Ctenocephalides felis Oral (CTECFE)
Solvent: 1 part by weight of dimethyl sulphoxide
For the purpose of producing a suitable preparation of active compound, 10 mg of active compound are mixed with 0.5 ml of dimethyl sulphoxide. A portion of the concentrate is diluted with citrated cattle blood, and the desired concentration is prepared.
About 20 unfed adult fleas (Ctenocephalides felis) are placed into a chamber which is closed at the top and bottom with gauze. A metal cylinder whose bottom end is closed with parafilm is placed onto the chamber. The cylinder contains the blood/active compound preparation, which can be taken up by the fleas through the parafilm membrane. After 2 days, the kill in % is determined.
For the purpose of preparing an appropriate active compound formulation, 10 mg of active compound are mixed with 0.5 ml of dimethyl sulphoxide. A portion of the concentrate is diluted with citrated cattle blood, and the desired concentration is prepared.
About 20 unfed adult fleas (Ctenocephalides felis) are placed into a chamber which is closed at the top and bottom with gauze. A metal cylinder whose bottom end is closed with parafilm is placed onto the chamber. The cylinder contains the blood/active compound preparation, which can be taken up by the fleas through the parafilm membrane.

Data set [14] deals with Phaedon cochleariae. The data set can be described thus: Phaedon cochleariae spray test (PHAECO), cabbage leaves, ppm. The class given is in vivo. The conditions noted are these: 168 h, 7 dat.
Source text: Phaedon cochleariae Spray Test (PHAECO)
as §2, §3, §4

For data set [15], the system named is Heliothis armigera. The data set can be described thus: Heliothis armigera spray test (HELIAR). The data set is classed as in vivo. The conditions noted are these: Helicoverpa armigera, 168 h, 7 dat.
Source text: Heliothis armigera Spray Test (HELIAR)
as §2, §3, §4

For data set [16], the system named is Nilaparvata lugens. The data set can be described thus: Nilaparvata lugens spray test (NILALU). The data set is classed as in vivo. The conditions noted are these: 168 h, 7 dat.
Source text: Nilaparvata lugens Spray Test (NILALU)
as §4

Data set [17] relates to Frankliniella occidentalis. The data set can be described thus: Frankliniella occidentalis spray test (FRANOC). The data set is classed as in vivo. Conditions: 168 h, 500 g/ha, 7 dat.
Source text: Frankliniella occidentalis Spray Test (FRANOC)
as §4

For data set [18], the system named is Liriomyza trifolii. The data set can be described thus: Liriomyza trifolii spray test (LIRITR). The data set is classed as in vivo. Conditions: 168 h, 7 dat.
Source text: Liriomyza trifolii Spray Test (LIRITR)
as §4

Setting [19] is: Myzus persicae, 144 h, MYZUPE, 6 dat.

Here are results for 4 compounds from US9126945B2, “N-(3-carbamoylphenly)-1H-pyrazole-5-carboxamide derivatives and the use thereof for controlling animal pests” (BAYER INTELLECTUAL PROPERTY GMBH, priority 2011, dated 2015).

What is called chromatographic logP is a lipophilicity value derived from retention on a column.

`CN(C(=O)c1c(C(F)(F)F)c(C(F)(F)C(F)(F)F)nn1C)c1ccc(Cl)c(C(=O)NC2(C#N)CC2)c1` [Example 8]: the “efficacy in % (laying of fertile eggs)” value in [1] (100 ppm, after 7 days) amounted to 100%; in data set [6] (20 μg/animal, after 7 days), 100%. Moreover, the inhibition at 20 ppm was determined as 100% in data set [1] (Rhipicephalus microplus, 168 h, BOOPMI DIP, 20 ppm, 7 dat); 100% in data set [5]; 100% in data set [9]. The efficacy in % was found to be 100% in [2]; 100% in [3]; 100% in data set [4] (application rate 500 g/ha, after 6 days); 100% in [12] (application rate 500 g/ha, after 7 days). Also, the inhibition at 100 g/ha in data set [4] (setting [19]) was 100%. Besides, the “% Activity dat” value in [6] (0.032 μg/animal) came to 100%. In data set [7], this compound showed a chromatographic logP of 3.21. In [8] (4 ppm), this compound gave an inhibition at 4 ppm of 95%. The “kill in % (efficacy)” value in [10] (100 ppm, after 2 days) is recorded as 100%; in data set [11], 100%. Moreover, in [13] (100 ppm, after 2 days), the “kill in % (effect)” value worked out at 100%. Also, the inhibition at 0.8 ppm in [13] (Ctenocephalides felis, po, 48 h, CTECFE, 0.8 ppm, 2 dat) was found to be 90%; in data set [14] (0.8 ppm), 100%.
Take `C[C@@H]1C[C@H]1NC(=O)c1cc(NC(=O)c2c(C(F)(F)F)c(C(F)(F)C(F)(F)F)nn2C)ccc1Cl` [Ik-280]: the inhibition at 20 ppm was 65% in data set [5] and 40% in [9]. Besides, the inhibition at 100 ppm in [15] (100 ppm) turned out to be 0%. For the same compound, the inhibition at 100 g/ha in data set [16] (100 g/ha) was found to be 0%. Besides, in data set [14] (4 ppm), the inhibition at 4 ppm was found to be 0%.
For `Cn1nc(C(F)(F)C(F)(F)F)c(C(F)(F)F)c1C(=O)Nc1ccc(Cl)c(C(=O)NC2CC2c2ccccc2)c1` (centres unmarked) [Ik-47], the inhibition at 500 g/ha in [4] (Myzus persicae, 144 h, MYZUPE, 500 g/ha, 6 dat) worked out at 0%; in data set [17], 0%; in [16] it was 0%. The inhibition at 20 ppm in data set [5] is 0%; in data set [8] (20 ppm) it was 30%; in [15] (20 ppm) it was 0%; in [9] it was 0%; in data set [13] (Ctenocephalides felis, po, 48 h, CTECFE, 20 ppm, 2 dat), 50%. For the same compound, in data set [6] (0.8 μg/animal), the “% Activity dat” value turned out to be 50%. In data set [10] (Musca domestica, 48 h, MUSCDO, 2 dat), this compound showed an inhibition at 100 ppm of 0%. In addition, in data set [12] (Phaedon cochleariae, in Brassica rapa, foliar, 168 h, read-out: % Activity dat), the inhibition at 20 g/ha amounted to 0%.
Consider `Cn1nc(C(F)(F)C(F)(F)F)c(C(F)(F)F)c1C(=O)Nc1ccc(Cl)c(C(=O)NC2(C(F)(F)F)CC2)c1` [Ik-296, reference compound], for which, in data set [4] (setting [19]), the inhibition at 100 g/ha stood at 0%. Also, the inhibition at 500 g/ha amounted to 60% in data set [17], 0% in [18] and 0% in data set [16].
